Columns and labels:
[1] = molecular target: T1, SCD (Rattus norvegicus, UniProt P07308); assay: Measurement of SCD inhibitory activity using microsome (TLC detection system); type: biochemical; conditions: rat liver microsome (20 μg), 15 min, [14C] stearoyl-CoA, test compound (10 mM) diluted to 3/1000 with 3× buffer, 10 μL in 30 μL reaction; for inhibition at 10 µM: read-out: SCD activity inhibitory rate (%)
T1 construct: an enzyme reaction using rat liver microsome (20 μg) was performed for 15 min; from tissue; host or cells: rat liver microsome fraction
T1 sequence (P07308 1-358): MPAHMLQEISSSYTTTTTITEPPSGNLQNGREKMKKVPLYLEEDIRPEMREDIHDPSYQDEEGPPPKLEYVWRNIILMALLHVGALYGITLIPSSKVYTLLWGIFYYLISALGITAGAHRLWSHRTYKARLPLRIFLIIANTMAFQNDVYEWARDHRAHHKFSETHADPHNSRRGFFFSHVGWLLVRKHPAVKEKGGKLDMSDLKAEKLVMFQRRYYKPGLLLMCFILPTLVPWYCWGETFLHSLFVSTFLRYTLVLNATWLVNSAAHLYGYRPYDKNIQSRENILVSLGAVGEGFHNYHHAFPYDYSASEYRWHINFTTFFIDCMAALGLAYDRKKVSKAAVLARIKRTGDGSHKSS
Experimental: (Test Method: Measurement of SCD Inhibitory Activity Using Microsome (TLC Detection System))
A test compound (10 mM) diluted with DMSO in advance was secondarily diluted to 3/1000 with 3× buffer (300 mmol/L NaH2PO4 [pH 7.4], 450 mM KCl, 30 mM NaF, 9 mM MgCl2, 4.5 mM glutathione [reduced form], 0.3% BSA [fatty acid free, SIGMA]). The test compound (10 μL) diluted with the assay buffer was dispensed to a PP 96-deep well block, and a microsome fraction (10 μL) diluted with a microsome buffer was added thereto. The enzyme reaction was started by the addition of 10 μL of [^14C] stearoyl-CoA (American Radiolabeled Chemicals [ARC], Inc.) diluted to 10 μCi/mL with 9 mmol/L NADH. For evaluation of the compound, an enzyme reaction using rat liver microsome (20 μg) was performed for 15 min. The reaction was quenched by the addition of 10 μL of 2.5N NaOH, a plate seal was applied, and the reaction mixture was incubated overnight in a dry heater set to 65° C. to allow saponification. Solvent extraction of fatty acid was based on the Bligh&Dyer method (1). Formic acid:methanol:chloroform (1:6:3) (200 μL) was added, the state of single layer was maintained, the mixture was sufficiently stirred, and pure water (120 μL) was added to allow separation into two layers. The lower chloroform layer (10 μL) was spotted on reversed-phase TLC plate (RP-18, 1154230001, Merck Japan, Ltd.) and developed with acetonitrile:pure water:acetic:acid (95:4.5:0.5). The TLC plate was dried and transferred onto an Imaging Plate (Fuji Photo Film Co., Ltd.) for not less than 5 hr. For detection, BAS-5000 (Fuji Photo Film Co., Ltd) was used and the obtained spot images were converted to numerical values using Multi Gauge Ver2.3 (Fuji Photo Film Co., Ltd), based on which the SCD activity inhibitory rate (%) was determined.

[2] = test system: Diet-Induced Obesity (DIO) Model Mouse; assay: Antiobesity action on diet-induced obesity (DIO) model mouse: liver unsaturation index number (C18:1/C18:0); type: in vivo; conditions: liver C18:1/C18:0 ratio, 0.1 mg/kg body weight by gavage for 4 weeks, n=7
Text: Male C57BL/6J mice (6-week-old) were purchased from CLEA Japan, Inc. The mice were divided into two groups, and a high fat diet (Research Diets, Inc.; solid D12451) was given to one group and a general feed for rearing and breeding (CLEA Japan, Inc.; solid CE-2) was given to the other group.
Each group was reared for 4 months under full feeding, and divided into a diet-induced obesity model group and a general feed group using the body weight and plasma triglyceride concentration as indices. […] of a 0.5% methylcellulose suspension of the compound of Example 15 (0.1 mg/kg body weight) was administered to each of the diet-induced obesity model group and the general feed group by gavage for 4 weeks (each group n=7). […] The body weight of each group was measured during the dosing period. […]
The liver total lipid sample extracted by the above-mentioned procedure was labeled using an ester type fatty acid labeling reagent (YMC). The labeled sample was dissolved in methanol (5 μL) and analyzed using YMC-Pack FA (6.0Φ×250 mm), CH3CN:H2O:0.1% TFA (850:150:2) as a mobile phase at a flow rate of 1.2 mL/min. The peak area of each fatty acid in the sample was determined as a C18:1/C18:0 ratio from the peak area of each standard product and used as an unsaturation index number which is an index of the enzyme activity of SCD. […]

Cc1nsc(-c2ccc(N3CCC4(C3)OCc3ccccc34)nn2)n1 (centres unmarked) [Example 15, 1′-[6-(3-methyl-1,2,4-thiadiazol-5-yl)pyridazin-3-yl]-3H-spiro[2-benzofuran-1,3′-pyrrolidine]]
inhibition at 10 µM [1]: 100%
unsaturation index number (mean ± SD) ([2]; diet-induced obesity model group): 43.886 ± 2.0318
unsaturation index number (mean ± SD) ([2]; general feed group): 29.017 ± 1.2254

Cc1noc(-c2ccc(N3CCC4(Cc5ccccc5O4)C3)nn2)n1 (centres unmarked) [Example 170, 1′-[6-(3-methyl-1,2,4-oxadiazol-5-yl)pyridazin-3-yl]-3H-spiro[1-benzofuran-2,3′-pyrrolidine]]
inhibition at 10 µM [1]: 100%

Cc1noc(-c2ccc(N3CCC4(C3)OCc3ccccc34)nn2)n1 (centres unmarked) [Example 177, 1′-[6-(3-methyl-1,2,4-oxadiazol-5-yl)pyridazin-3-yl]-3H-spiro[2-benzofuran-1,3′-pyrrolidine]]
SCD activity inhibitory rate (%) [1]: 99%

Cc1noc(-c2ccc(N3CCC4(C3)OCc3ccccc34)nn2)n1 (centres unmarked) [Example 178, 1′-[6-(3-methyl-1,2,4-oxadiazol-5-yl)pyridazin-3-yl]-3H-spiro[2-benzofuran-1,3′-pyrrolidine]]
SCD activity inhibitory rate (%) [1]: 97%

Cc1noc(-c2ccc(N3CCC4(COc5ccccc54)C3)nn2)n1 (centres unmarked) [Example 179 (long retention time), 1′-[6-(3-methyl-1,2,4-oxadiazol-5-yl)pyridazin-3-yl]spiro[1-benzofuran-3,3′-pyrrolidine]]
SCD activity inhibitory rate (%) [1]: 96%

Cc1noc(-c2ccc(N3CCC4(COc5ccccc54)C3)nn2)n1 (centres unmarked) [Example 179 (short retention time), 1′-[6-(3-methyl-1,2,4-oxadiazol-5-yl)pyridazin-3-yl]spiro[1-benzofuran-3,3′-pyrrolidine]]
SCD activity inhibitory rate (%) [1]: 100%
